Source: ChEMBL document CHEMBL5050844 (2019)

How the values were obtained:
Assay type in all cases: functional
[1] = Induction of anti-CD3 antibodies-stimulated human CD8+ T cell activation in immunocompetent mouse assessed fold increase in CD25 expression at 45 mg/kg, po administered twice a day
[2] = Induction of anti-CD3 antibodies-stimulated human T cell activation in immunocompetent mouse assessed fold increase in IFN-gamma secretion at 90 mg/kg, ip administered twice a day
[3] = Induction of anti-CD3 antibodies-stimulated human T cell activation in immunocompetent mouse assessed fold increase in TNFalpha secretion at 90 mg/kg, ip administered twice a day
[4] = Induction of anti-CD3 antibodies-stimulated human T cell activation in immunocompetent mouse assessed fold increase in IFN-gamma secretion at 90 mg/kg, ip administered thrice a day
[5] = Induction of anti-CD3 antibodies-stimulated human T cell activation in immunocompetent mouse assessed fold increase in IL-2 secretion at 90 mg/kg, ip administered thrice a day
[6] = Induction of anti-CD3 antibodies-stimulated human T cell activation in immunocompetent mouse assessed fold increase in TNF-alpha secretion at 90 mg/kg, ip administered thrice a day
[7] = Induction of anti-CD3 antibodies-stimulated human CD8+ T cell activation in immunocompetent mouse assessed fold increase in CD25 expression at 90 mg/kg, ip administered twice a day
[8] = Induction of anti-CD3 antibodies-stimulated human T cell activation in immunocompetent mouse assessed fold increase in IL-2 secretion at 90 mg/kg, ip administered twice a day
Further: reference of the scale not given here.

Row | Compound | fold change (FC) [1] | fold change (FC) [2] | fold change (FC) [3] | fold change (FC) [4] | fold change (FC) [5] | fold change (FC) [6] | fold change (FC) [7] | fold change (FC) [8]
1 | Cn1cnnc1CC1(c2cccc(N3Cc4c(cc(CN5CCC6(CC6)C5)cc4C(F)(F)F)C3=O)c2)COC1 | 1 | – | – | – | – | – | – | –
2 | Cc1cc(C(=O)Nc2cccc(C3(Cc4nncn4C)COC3)c2)nc(C2CC2)n1 | 1 | – | – | – | – | – | – | –
3 | C[C@@H](Sc1nncn1C)c1cccc(NC(=O)c2cccc(C(F)(F)F)n2)c1 | – | <1 | 1 | <1 | <1 | <1 | <1 | <1
4 | C[C@H](Sc1nncn1C)c1cccc(NC(=O)c2cccc(C(F)(F)F)n2)c1 | – | 1 | >2.5 | 2.01 | >2.5 | >2.5 | <1 | >2.5
